One compound from patent US7148230B2, “Quinazoline derivatives” (AstraZeneca AB, priority 2003, dated 2006) can be followed below.

One data set addresses T1, EGFR tyrosine kinase (Homo sapiens, UniProt P00533).
T1 construct: Recombinant intracellular fragments of EGFR, erbB2 and erbB4; made in house; host or cells: baculovirus/Sf21 insect cells (cleared lysate used)
Nature of the data set: Protein tyrosine kinase phosphorylation assay, Test (a), EGFR. Format: biochemical. Particulars: ATP at Km concentration; read-out: IC50 (nM) Test (a) (Inhibition of EGFR tyrosine kinase protein phosphorylation). As to the method: (§1) This test measures the ability of a test compound to inhibit the phosphorylation of a tyrosine containing polypeptide substrate by an erbB tyrosine kinase enzyme.
(§2) Recombinant intracellular fragments of EGFR, erbB2 and erbB4 (accession numbers X00588, X03363 and L07868 respectively) were cloned and expressed in the baculovirus/Sf21 system. Lysates were prepared from these cells by treatment with ice-cold lysis buffer (20 mM N-2-hydroxyethylpiperizine-N′-2-ethanesulfonic acid (HEPES) pH7.5, 150 mM NaCl, 10% glycerol, 1% Triton X-100, 1.5 mM MgCl2, 1 mM ethylene glycol-bis(β-aminoethyl ether) N′,N′,N′,N′-tetraacetic acid (EGTA), plus protease inhibitors and then cleared by centrifugation.
(§3) Constitutive kinase activity of the recombinant protein was determined by its ability to phosphorylate a synthetic peptide (made up of a random co-polymer of Glutamic Acid, Alanine and Tyrosine in the ratio of 6:3:1). […]
(§4) The immobilised phospho-peptide product of the reaction was detected by immunological methods. […] After further washing, HRP activity in each well of the plate was measured colorimetrically using 22′-Azino-di-[3-ethylbenzthiazoline sulfonate (6)]diammonium salt crystals (ABTS™ from Roche) as a substrate.
(§5) Quantification of colour development and thus enzyme activity was achieved by the measurement of absorbance at 405 nm on a Molecular Devices ThermoMax microplate reader. […]

In another data set the target is T2, erbB2 tyrosine kinase (Homo sapiens, UniProt P04626).
T2 construct: Recombinant intracellular fragments of EGFR, erbB2 and erbB4; made in house; host or cells: baculovirus/Sf21 insect cells (cleared lysate used)
Nature of the data set: Protein tyrosine kinase phosphorylation assay, Test (a), erbB2. The conditions noted are these: ATP at Km concentration; read-out: IC50 (nM) Test (a) (Inhibition of erbB2 tyrosine kinase protein phosphorylation). Format: biochemical. As to the method: as §1, §2, §3, §4, §5

T2 sequence (P04626 676-1255 limits assumed): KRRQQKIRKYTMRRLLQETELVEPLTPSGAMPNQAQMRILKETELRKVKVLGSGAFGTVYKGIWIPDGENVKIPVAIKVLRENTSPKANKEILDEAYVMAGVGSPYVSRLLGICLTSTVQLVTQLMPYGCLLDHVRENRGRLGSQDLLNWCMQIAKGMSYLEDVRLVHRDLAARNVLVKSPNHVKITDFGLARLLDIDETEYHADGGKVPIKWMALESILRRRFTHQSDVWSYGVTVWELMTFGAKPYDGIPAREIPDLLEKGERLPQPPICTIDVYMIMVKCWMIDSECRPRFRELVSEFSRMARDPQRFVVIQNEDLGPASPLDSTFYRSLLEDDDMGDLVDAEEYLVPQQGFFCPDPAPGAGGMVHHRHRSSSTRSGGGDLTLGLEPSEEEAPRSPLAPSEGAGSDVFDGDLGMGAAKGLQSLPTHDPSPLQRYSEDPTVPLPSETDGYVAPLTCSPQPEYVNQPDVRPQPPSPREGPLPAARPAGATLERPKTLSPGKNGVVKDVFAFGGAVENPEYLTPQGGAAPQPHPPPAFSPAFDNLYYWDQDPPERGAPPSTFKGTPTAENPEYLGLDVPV
T1 sequence (P00533 669-1210 limits assumed): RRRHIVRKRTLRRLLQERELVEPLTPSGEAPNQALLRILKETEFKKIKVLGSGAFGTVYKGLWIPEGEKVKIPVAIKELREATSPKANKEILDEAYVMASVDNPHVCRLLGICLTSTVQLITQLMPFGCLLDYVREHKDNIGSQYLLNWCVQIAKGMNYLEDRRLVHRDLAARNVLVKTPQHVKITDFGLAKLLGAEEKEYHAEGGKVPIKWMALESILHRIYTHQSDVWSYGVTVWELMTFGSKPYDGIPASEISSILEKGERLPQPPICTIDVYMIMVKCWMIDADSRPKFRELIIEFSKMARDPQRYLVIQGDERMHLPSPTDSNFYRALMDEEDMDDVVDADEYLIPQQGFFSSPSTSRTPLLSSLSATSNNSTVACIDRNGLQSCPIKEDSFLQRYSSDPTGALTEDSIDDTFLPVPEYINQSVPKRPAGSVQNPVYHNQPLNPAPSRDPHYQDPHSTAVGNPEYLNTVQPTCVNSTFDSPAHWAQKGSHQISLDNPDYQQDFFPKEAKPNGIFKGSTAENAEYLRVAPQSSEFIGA

The term IC50 denotes the concentration needed to halve the response being measured. What is called melting point is the temperature of the solid-liquid transition. Take `COc1cc2ncnc(Nc3cccc(Cl)c3F)c2cc1OC1CCN(C(=O)CO)CC1` [Example 1, 4-(3-chloro-2-fluoroanilino)-6-[1-(hydroxyacetyl)piperidin-4-yloxy]-7-methoxyquinazoline]: the melting point lay in the range of 195.5 to 196.5 °C. Besides, at EGFR tyrosine kinase, the IC50 came to 3 nM. Moreover, the IC50 at erbB2 tyrosine kinase turned out to be 59 nM.
